This assay deals with indomethacin induced gastric damage. Briefly: Anti-ulcer activity: inhibition of indomethacin induced gastric damage in the rat. Format: in vivo. The note with it: 100 mg/kg orally, 30 minutes prior to indomethacin 15 mg/kg s.c.; score scale 1-9 after 4 hours; vehicle control 3.71 ± 0.80; P<0.01 (Mann Witney test). The procedure: Anti-ulcer activity was assessed by the inhibition of indomethacin induced gastric damage in the rat according to the method of Eleghe (1974) Israeli J. Med. Sci. 10. 1451. Rats were starved overnight and given 15 mg/kg indomethacin subcutaneously and sacrificed 4 hours later. Stomachs were reflated with n. saline, cut along the greater curvature pinned out and scored for gastric damage by the following system:
Score 1-3--according to degree of erythema and slight haemorrhage.
Score 4-6--according to degree of muscosal erosion.
Score 7-9--according to depth of gastric damage.
Groups of 7 rats were used for each treatment and the test compound or vehicle were administered 30 minutes prior to giving the indomethacin. Dose of test compound was 100 mg/kg orally and control groups receiving vehicle only were obtained using the above scoring system and the Mann Witney test applied for significance of difference between the values obtained with the treatments.

The structures appear in SMILES notation.

Regarding `CCCCCCC(C)(O)CCN1CN(C)C(=O)C1CCCCCCC(=O)OC` (stereo not shown) [Compound 6, 1-(3'-hydroxy-3'-methyl-n-nonyl)-3-methyl-5-(6"-methoxycarbonyl-n-hexyl)-4-imidazolidone], the “Test Compound Mean Score ± S.E. of Mean (gastric damage)” value worked out at 0.71 ± 0.42.

Values taken from patent US4246273A, “1,5-Disubstituted imidazolid-4-ones” (Beecham Group Limited, priority 1978, dated 1981).
